Reference: PubChem BioAssay (NCI)
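Where inhibition never reached the appropriate level, the endpoint shown equals the highest concentration tested. Otherwise, values were interpolated linearly from a five-concentration, 48-hour dose response in 96-well plates. TGI is the concentration that stops growth completely.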

What was measured:
Assay in all cases: NCI tumour cell line growth inhibition, 48 h
786-0 renal = test system: 786-0 renal
HCT-116 colon = test system: HCT-116 colon
HOP-92 NSCLC = test system: HOP-92 NSCLC
HS 578T breast = test system: HS 578T breast
LOX IMVI melanoma = test system: LOX IMVI melanoma
MALME-3M melanoma = test system: MALME-3M melanoma
NCI-H460 lung = test system: NCI-H460 lung
NCI-H522 lung = test system: NCI-H522 lung
NCI/ADR-RES ovarian = test system: NCI/ADR-RES ovarian
OVCAR-3 ovarian = test system: OVCAR-3 ovarian
OVCAR-4 ovarian = test system: OVCAR-4 ovarian
OVCAR-8 ovarian = test system: OVCAR-8 ovarian
SK-MEL-28 melanoma = test system: SK-MEL-28 melanoma
SNB-19 CNS = test system: SNB-19 CNS
SNB-75 CNS = test system: SNB-75 CNS
SR leukemia = test system: SR leukemia
U251 CNS = test system: U251 CNS
UACC-62 melanoma = test system: UACC-62 melanoma
NCI-H226 lung = test system: NCI-H226 lung

Row | SMILES | TGI (786-0 renal) [µM] | TGI (HCT-116 colon) [µM] | TGI (HOP-92 NSCLC) [µM] | TGI (HS 578T breast) [µM] | TGI (LOX IMVI melanoma) [µM] | TGI (MALME-3M melanoma) [µM] | TGI (NCI-H460 lung) [µM] | TGI (NCI-H522 lung) [µM] | TGI (NCI/ADR-RES ovarian) [µM] | TGI (OVCAR-3 ovarian) [µM] | TGI (OVCAR-4 ovarian) [µM] | TGI (OVCAR-8 ovarian) [µM] | TGI (SK-MEL-28 melanoma) [µM] | TGI (SNB-19 CNS) [µM] | TGI (SNB-75 CNS) [µM] | TGI (SR leukemia) [µM] | TGI (U251 CNS) [µM] | TGI (UACC-62 melanoma) [µM] | TGI (NCI-H226 lung) [µM]
1 | O=C1O/C(=C\c2ccc(O)c(Br)c2)C(c2ccc(O)cc2)=C1Cl | > 100 | > 100 | > 100 | > 100 | > 100 | > 100 | 76.6 | 68.6 | 82.4 | 59.7 | > 100 | > 100 | > 100 | > 100 | > 100 | > 100 | > 100 | > 100 | 
2 | CS(=O)(=O)c1nc(N)nc2nc[nH]c12 | > 100 | > 100 | > 100 |  | > 100 |  | > 100 | > 100 |  | > 100 | > 100 | > 100 | > 100 | > 100 |  | > 100 | > 100 | > 100 | > 100
3 | CC1(C)C(O)c2ccccc2OC1N1CCN(C2Oc3ccccc3C(O)C2(C)C)CC1 (stereo not given) | > 100 | > 100 | > 100 | > 100 | > 100 | > 100 | > 100 | > 100 | > 100 | > 100 | > 100 | > 100 | > 100 | > 100 | > 100 | > 100 | > 100 | > 100 | > 100
4 | N#CN=Nc1cc(Cl)c(N=NC#N)cc1Cl |  | > 100 | > 100 |  | > 100 | > 100 | > 100 | > 100 |  | > 100 | > 100 | > 100 | > 100 | > 100 | > 100 | > 100 | > 100 | > 100 | > 100
5 | CCc1cc(-c2nsc(=O)o2)c(S(=O)(=O)CC)s1 | > 100 | > 100 | > 100 | > 100 | > 100 |  | > 100 | 57.2 | > 100 | > 100 | > 100 | > 100 | > 100 | > 100 | > 100 | > 100 | > 100 |  | > 100
6 | COc1ccccc1C1C2=C(COC2=O)OC(C)(C)Oc2cc3c(cc21)OCO3 (stereo not given) | > 68.8 | > 36.1 | > 61.5 | > 100 | > 44.2 | > 100 | > 40.3 | > 32 | > 30.8 | 13.3 | > 100 | > 100 | 72.1 | 58.2 | 8.42 | > 100 | > 89.3 | > 25.4 | > 24.8
7 | CCCCOC(=O)CN1C(=O)c2ccccc2C1=O |  | > 100 | > 100 |  | > 100 | > 100 | > 100 | > 100 |  | > 100 | > 100 | > 100 | > 100 | > 100 | > 100 | > 100 | > 100 | > 100 | > 100
8 | CC1=CC(C)C(C)N(CCNC(=O)Nc2ccccc2)c2ccccc21 (stereo not given) | > 100 | 35 |  | 30.3 | 24.3 | 70.2 | 74.4 | 40.2 | 67.9 | 51.2 | > 100 | 54.3 | > 100 | 85.2 | 82.4 | 46.4 |  | 49.4 | 72.9
9 | CC1(C)S[C@@H]2[C@H](NC(=O)CCC[C@@H](N)C(=O)O)C(=O)N2[C@H]1C(=O)O |  | > 50 | > 50 |  | > 50 | > 50 | > 50 | > 50 | > 31.6 | > 50 | > 50 | > 19.9 | > 50 | > 50 | > 50 |  | > 28.4 | > 50 | > 50
10 | O=C1CN(c2cccc(C(F)(F)F)c2)C(=O)CN1NCNN1CC(=O)N(c2cccc(C(F)(F)F)c2)CC1=O | > 100 | > 100 |  | > 100 |  |  | > 100 | > 100 | > 100 |  |  | > 100 | > 100 | > 100 | > 100 | > 100 | > 100 |  | 
